From patent publication US20040116420A1 (priority 2001, published 2004) come the findings set out here.

One series concerns HSV-1. Put plainly: Antiviral activity, HSV-1 in Vero cells, plaque method. It counts as cell-based. Conditions: 90% inhibition of plaque formation. In a few lines:
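HSV-1 (50,000 pfu in 2% FBS-DMEM) was added to Vero cells and removed, then the compound was applied in 2% FBS-DMEM for 20 h at 37° C, 5% CO2. After a freeze-thaw, virus yield in the medium was titred by plaque assay. EC90 is the concentration giving 90% plaque reduction versus the compound-free control.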

The target of a further series is T1, HSV-1 protease (Human herpesvirus 1, UniProt P10210).
T1 construct: 6xHis (N); made in house; host or cells: baculovirus expression system
T1 sequence (P10210 1-247): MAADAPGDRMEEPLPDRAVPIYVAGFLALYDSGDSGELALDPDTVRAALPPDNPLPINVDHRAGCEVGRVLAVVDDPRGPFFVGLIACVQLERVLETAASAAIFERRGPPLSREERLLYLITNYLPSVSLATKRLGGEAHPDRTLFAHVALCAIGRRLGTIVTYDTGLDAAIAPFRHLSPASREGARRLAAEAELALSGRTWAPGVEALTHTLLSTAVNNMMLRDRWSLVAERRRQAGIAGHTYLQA
The experiment in a line: Enzymatic assay for HSV-1 protease (assembly) inhibitor, fluorescence polarization. It counts as biochemical. Conditions: read-out: HSV-1 Enzyme inhibition IC50. Put shortly:
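His6-tagged HSV-1 UL26 protease, baculovirus-expressed, preincubated 30 min at RT with compound in 1 M citrate/phosphate buffer pH 7.4 with 20% glycerol and 2 mM TCEP. A biotin-HTYLQA*SERFRIK-DTAF substrate was then cleaved for 60 min at RT, stopped with avidin, and read by fluorescence polarization versus no-inhibitor control.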
(In general: Fluorescence polarisation rises when a labelled molecule tumbles more slowly, as on binding a larger partner.)

A further series deals with Vero cells. Put plainly: Cytotoxicity, Vero cells, Alamar Blue. It counts as cell-based. Conditions: 25 μM, 20 hours. On the procedure: An Assay Method for Cytotoxicity
The Vero cells were sown on a 96-well plate and then cultured overnight. The culture supernatant was removed, and 200 μl of 2% FBS-DMEM comprising 25 μM of the test compound was added. In this case, a substance to which 2% FBS-DMEM not comprising any test compound had been added was determined as a control. These cells were incubated in the presence of 5% CO2 at 37° C. for 20 hours. Alamar Blue (20 μl) was added to the cells, and cells were incubated for about 6 hours until the color of the control changed. The ratio of the absorbance was assayed using a microplate reader for absorption, and the value relative to the control was determined to be the ratio of living cells.
(Resazurin is reduced to fluorescent resorufin, in cell work by metabolically active cells.)

Setting [1] is: Human alphaherpesvirus 1, 20 hours.

For `Cc1c(NC(=O)OC(C)(C)C)ccc2nc(N3CCC[C@H]3C(=O)N(C)Cc3ccccn3)oc(=O)c12` [Compound No.90, {5-Methyl-2-[2S-(methyl-pyridin-2-ylmethyl-carbamoyl)-pyrrolidin-1-yl]-4-oxo-4H-benzo[d][1,3]oxazin-6-yl}-carbamic acid tert-butyl ester], the EC90 (in general, the concentration needed for an effect of 90%) in the series with HSV-1 (setting [1]) was > 12.5 µM. Also, the IC50 (in general, the midpoint of a concentration-inhibition curve) at HSV-1 protease was determined as 16.9 µM. In the series on Vero cells, the “Cell viability (% of control)” value is on record as 93.6%.
Taken in the same sequence, the figures for `Cc1c(NC(=O)OC(C)(C)C)ccc2nc(N[C@H](C(=O)NCc3cccnc3)C(C)(C)C)oc(=O)c12` [Compound No.33, (2-{2,2-dimethyl-1S-[(pyridin-3-ylmethyl)-carbamoyl]-propylamino}-5-methyl-4-oxo-4H-benzo[d][1,3]oxazin-6-yl)-carbamic acid tert-butyl ester] were 13 µM, 10.1 µM and 105.0%.
Taken in the same sequence, the figures for `Cc1c(NC(=O)c2ccc(OC(F)(F)F)cc2)ccc2nc(NC(C)(C)C(=O)N(C)CCc3ccccn3)oc(=O)c12` [Compound No.173, N-(5-Methyl-2-{1-methyl-1-[methyl-(2-pyridin-2-yl-ethyl)-carbamoyl]-ethylamino}-4-oxo-4H-benzo[d][1,3]oxazin-6-yl)-4-trifluoromethoxy-benzamide] were 7.1 µM, 1.4 µM and 26.1%.
Regarding `Cc1c(NC(=O)OC(C)(C)C)ccc2nc(N3CCCC[C@H]3C(=O)NCc3ccncc3)oc(=O)c12` [Compound No.104, (5-Methyl-4-oxo-2-{2S-[(pyridin-4-ylmethyl)-carbamoyl]-piperidin-1-yl}-4H-benzo[d][1,3]oxazin-6-yl)-carbamic acid tert-butyl ester], the EC90 in the series with HSV-1 (setting [1]) is > 12.5 µM. For the same molecule, at HSV-1 protease, the IC50 came out at 4.3 µM. For the same molecule, the “Cell viability (% of control)” value with Vero cells is given as 63.0%.
Take `Cc1c(NC(=O)OC(C)(C)C)ccc2nc(N3C[C@H](OCc4ccccc4)C[C@H]3C(=O)NCc3ccncc3)oc(=O)c12` [Compound No.111, (2-{4R-Benzyloxy-2S-[(pyridin-4-ylmethyl)-carbamoyl]-pyrrolidin-1-yl}-5-methyl-4-oxo-4H-benzo[d][1,3]oxazin-6-yl)-carbamic acid tert-butyl ester]: in the series on HSV-1 (setting [1]), it took 7.8 µM to reach the 90% level (EC90). The half-maximal inhibitory concentration (IC50) at HSV-1 protease came to 3.3 µM. In the series with Vero cells, the “Cell viability (% of control)” value is recorded as 80.4%.
`Cc1c(NC(=O)OC(C)(C)C)ccc2nc(N3CCC[C@H]3C(=O)NCc3ccncc3)oc(=O)c12` [Compound No.88, (5-Methyl-4-oxo-2-{2S-[(pyridin-4-ylmethyl)-carbamoyl]-pyrrolidin-1-yl}-4H-benzo[d][1,3]oxazin-6-yl)-carbamic acid tert-butyl ester]: the 90% effect concentration (EC90) in the series with HSV-1 (20 hours) is > 12.5 µM. The half-maximal inhibitory concentration (IC50) on HSV-1 protease was 2.7 µM. Besides, in the series with Vero cells, the “Cell viability (% of control)” value was determined as 74.1%.
On to `Cc1c(NC(=O)OC(C)(C)C)ccc2nc(N[C@@H](CCc3ccccc3)C(=O)NCc3cccnc3)oc(=O)c12` [Compound No.40, (5-Methyl-4-oxo-2-{3-phenyl-1S-[(pyridin-3-ylmethyl)-carbamoyl]-propylamino}-4H-benzo[d][1,3]oxazin-6-yl)-carbamic acid tert-butyl ester], for which the EC90 in the series with HSV-1 (setting [1]) was > 25 µM. Also, the IC50 at HSV-1 protease was > 20 µM. Also, the “Cell viability (% of control)” value in the series with Vero cells is on record as 100.0%.
Taken in the same sequence, the figures for `Cc1c(NC(=O)OC(C)(C)C)ccc2nc(N3Cc4ccccc4C[C@H]3C(=O)NCc3ccccn3)oc(=O)c12` [Compound No.94, (5-Methyl-4-oxo-2-{3S-[(pyridin-2-ylmethyl)-carbamoyl]-3,4-dihydro-1H-isoquinolin-2-yl}-4H-benzo[d][1,3]oxazin-6-yl)-carbamic acid tert-butyl ester] were 5.4 µM, 2.3 µM and 55.2%.
Turning to `Cc1c(NC(=O)OC(C)(C)C)ccc2nc(N3C[C@H](OCc4ccccc4)C[C@H]3C(=O)N(C)CCc3cccnc3)oc(=O)c12` [Compound No.115, (2-{4R-Benzyloxy-2S-[methyl-(2-pyridin-3-yl-ethyl)-carbamoyl]-pyrrolidin-1-yl}-5-methyl-4-oxo-4H-benzo[d][1,3]oxazin-6-yl)-carbamic acid tert-butyl ester], in the series with HSV-1 (setting [1]), the 90% effect concentration (EC90) was determined as 6.1 µM. For the same molecule, the IC50 at HSV-1 protease was > 20 µM. Moreover, the “Cell viability (% of control)” value with Vero cells was 71.4%.
As to `Cc1c(NC(=O)OC(C)(C)C)ccc2nc(N3Cc4ccccc4C[C@H]3C(=O)N(C)Cc3ccccn3)oc(=O)c12` [Compound No.98, {5-Methyl-2-[3S-(methyl-pyridin-2-yl-methylcarbamoyl)-3,4-dihydro-1H-isoquinolin-2-yl]-4-oxo-4H-benzo[d][1,3]oxazin-6-yl}-carbamic acid tert-butyl ester], it took 5.8 µM to reach the 90% level in the series on HSV-1 (setting [1]) (EC90). Moreover, the IC50 on HSV-1 protease came out at 6.1 µM. Moreover, in the series with Vero cells, the “Cell viability (% of control)” value came to 46.2%.
In the series on HSV-1 (setting [1]), `Cc1c(NC(=O)OC(C)(C)C)ccc2nc(N[C@@H](CCc3ccccc3)C(=O)NCc3ccccn3)oc(=O)c12` [Compound No.39, (5-Methyl-4-oxo-2-{3-phenyl-1S-[(pyridin-2-ylmethyl)-carbamoyl]-propylamino}-4H-benzo[d][1,3]oxazin-6-yl)-carbamic acid tert-butyl ester] showed an EC90 of 12.4 µM. The IC50 on HSV-1 protease was found to be 1.5 µM. Moreover, the “Cell viability (% of control)” value in the series with Vero cells is on record as 90.1%.
With `Cc1c(NC(=O)OC(C)(C)C)ccc2nc(N[C@@H](CC3CCCCC3)C(=O)N(C)CCc3ccccn3)oc(=O)c12` [Compound No.47, (2-{2-cyclohexyl-1S-[methyl-(2-pyridin-2-yl-ethyl)-carbamoyl]-ethylamino}-5-methyl-4-oxo-4H-benzo[d][1,3]oxazin-6-yl)-carbamic acid tert-butyl ester], the concentration for an effect of 90% (EC90) in the series on HSV-1 (setting [1]) was < 3.2 µM. Further, at HSV-1 protease, the concentration for half-maximal inhibition (IC50) is 2.9 µM. For the same molecule, the “Cell viability (% of control)” value in the series with Vero cells is recorded as 36.7%.
For the molecule `Cc1c(NC(=O)c2cc(Cl)sc2Cl)ccc2nc(NC(C)(C)C(=O)N(C)CCc3ccccn3)oc(=O)c12` [Compound No.181, 2,5-Dichloro-thiophene-3-carboxylic acid (5-methyl-2-{1-methyl-1-[methyl-(2-pyridin-2-yl-ethyl)-carbamoyl]-ethylamino}-4-oxo-4H-benzo[d][1,3]oxazin-6-yl)-amide], the 90% effect level in the series with HSV-1 (setting [1]) (EC90) was put at 10.9 µM. Moreover, on HSV-1 protease, the half-inhibitory concentration (IC50) was 1.8 µM. Besides, the “Cell viability (% of control)” value in the series with Vero cells was determined as 44.3%.
As for `CCOc1ccc(C(=O)Nc2ccc3nc(NC(C)(C)C(=O)N(C)CCc4ccccn4)oc(=O)c3c2C)cc1` [Compound No.164, 4-Ethoxy-N-(5-methyl-2-{1-methyl-1-[methyl-(2-pyridin-2-yl-ethyl)-carbamoyl]-ethylamino}-4-oxo-4H-benzo[d][1,3]oxazin-6-yl)-benzamide], the EC90 with HSV-1 (setting [1]) came to 6.2 µM. Moreover, the half-maximal inhibitory concentration (IC50) on HSV-1 protease was 1.4 µM. In addition, in the series with Vero cells, the “Cell viability (% of control)” value is listed as 47.7%.
With `Cc1c(NC(=O)OC(C)(C)C)ccc2nc(N3CCC[C@H]3C(=O)N(C)CCc3ccccn3)oc(=O)c12` [Compound No.91, (5-Methyl-2-{2S-[methyl-(2-pyridin-2-yl-ethyl)-carbamoyl]-pyrrolidin-1-yl}-4-oxo-4H-benzo[d][1,3]oxazin-6-yl)-carbamic acid tert-butyl ester], the EC90 in the series on HSV-1 (setting [1]) was > 12.5 µM. Moreover, the 50% inhibitory concentration (IC50) at HSV-1 protease is > 20 µM. For the same molecule, the “Cell viability (% of control)” value with Vero cells is 92.3%.
`Cc1c(NC(=O)OC(C)(C)C)ccc2nc(N3CCCC[C@H]3C(=O)N(C)CCc3ccccn3)oc(=O)c12` [Compound No.106, (5-Methyl-2-{2S-[methyl-(2-pyridin-2-yl-ethyl)-carbamoyl]-piperidin-1-yl}-4-oxo-4H-benzo[d][1,3]oxazin-6-yl)-carbamic acid tert-butyl ester]: in the series with HSV-1 (setting [1]), the EC90 was > 12.5 µM. Also, the IC50 on HSV-1 protease came to 7.6 µM. The “Cell viability (% of control)” value with Vero cells is 53.3%.
The molecule `Cc1c(NC(=O)OC(C)(C)C)ccc2nc(N[C@@H](CC3CCCCC3)C(=O)NCCc3ccccn3)oc(=O)c12` [Compound No.29, {2-[2-Cyclohexyl-1S-(2-pyridin-2-ylethylcarbamoyl)-ethylamino]-5-methyl-4-oxo-4H-benzo[d][1,3]oxazin-6-yl}-carbamic acid tert-butyl ester] returned an EC90 in the series on HSV-1 (setting [1]) of 24.3 µM. Moreover, on HSV-1 protease, the IC50 stood at 19.5 µM. The “Cell viability (% of control)” value in the series on Vero cells came to 110.0%.
With `COCC(=O)Nc1ccc2nc(NC(C)(C)C(=O)N(C)CCc3ccccn3)oc(=O)c2c1C` [Compound No.137, 2-[6-(2-Methoxy-acetylamino)-5-methyl-4-oxo-4H-benzo[d][1,3]oxazin-2-ylamino]-2,N-dimethyl-N-(2-pyridin-2-yl-ethyl)-propionamide], the 90% effect concentration (EC90) in the series with HSV-1 (setting [1]) was > 12.5 µM. At HSV-1 protease, the IC50 was determined as 4.2 µM. In addition, in the series with Vero cells, the “Cell viability (% of control)” value came to 98.2%.
With `Cc1c(NC(=O)c2ccccc2Cl)ccc2nc(NC(C)(C)C(=O)N(C)CCc3ccccn3)oc(=O)c12` [compound 151, 2-Chloro-N-(5-methyl-2-{1-methyl-1-[methyl-(2-pyridin-2-yl-ethyl)-carbamoyl]-ethylamino}-4-oxo-4H-benzo[d][1,3]oxazin-6-yl)-benzamide], the EC90 in the series on HSV-1 (setting [1]) is 7.6 µM. Also, the half-inhibitory concentration (IC50) on HSV-1 protease is 1.4 µM. For the same molecule, the “Cell viability (% of control)” value in the series on Vero cells is reported as 74.2%.
